# Patent US20120149708A1, “MODULATORS OF VIRAL TRANSCRIPTION, AND METHODS AND COMPOSITIONS THEREWITH” (George Mason University, priority 2010, published 2012)
# Tests used:
# [1] = tested on: HIV-1 (pNL4.3) in promonocytic U937 cells; experiment: Reverse transcriptase assay of supernatants, pNL4.3 electroporated cells; assay type: cell-based; conditions: Flavopiridol 200 nm, CR8 100 nm, CR8#13 50 nm, 48 hours
# Description: (§1) Jurkat T-cell and promonocytic U937 cells were electroporated with 5 μg pNL4.3 followed the next day by drug treatment of Flavopiridol (200 nm), CR8 (100 nm) or CR8#13 (50 nm). Cell supernatants were collected at 48 hours post drug treatment. Viral supernatants (10 μl) were incubated in a 96-well plate with reverse transcriptase (RT) reaction mixture overnight at 37° C., and 10 μl of the reaction mix was spotted on a DEAE Filtermat paper, washed with 5% (w/v) Na2HPO4 followed by water wash, and then dried completely. RT activity was measured in a Betaplate counter.
# (§2) For electroporations, Jurkat and U937 cells were resuspended at 3 million cells in 250 μl of RPMI. Five microgram of pNL4-3 was then added to the cell suspension. Cells were pulsed a single time at 210V, 800 μF, and low resistance. Electroporated cells were immediately transferred to RPMI-1640 with L-glutamine and Penicillin/Streptomycin with 10% (v/v) FBS and plated in 6 well plates. Twenty four hours-post electroporation, cells were treated with drugs for additional 48 hrs and harvested for RT analysis. RT assays were performed as described in ((Guendel et al. 2009; Easley et al. 2010).
# (§3) The present inventors examined whether Formula I, or Formula II compounds were effective inhibiting viral transcription in cell lines infected with an HIV-1 construct. Thus, Jurkat T-cells and promonocytic U937 cells were transfected with pNL4.3 and then treated with Flavopiridol, CR8 and CR8#13. Similar to monocytes, the Dicer levels are low to undetectable in promonocytic cells (FIG. 6) and was detectable only when these cells had differentiated into macrophages with PMA treatment.
# (§4) Following drug treatment cell supernatants were collected and processed for exogenous reverse transcriptase (RT) levels.
# [2] = tested on: HIV-1 (pNL4.3) in Jurkat T-cells; experiment: as above; assay type: cell-based; conditions: Flavopiridol 200 nm, CR8 100 nm, CR8#13 50 nm, 48 hours
# Description: as §1, §2, §3, §4
# 3′TAR and 5′TAR microRNA = experiment: Poly-A RT-PCR of TAR microRNA in TZM-bl cells with or without TSA; assay type: cell-based, HIV-1; conditions: for 3′ TAR microRNA amount: non-TSA treated TZM-bl cells, Flavopiridol 50 nm, CR8 100 nm, CR8#13 100 nm
# Description: RNA was extracted 48 hrs-post drug treatment. 500 ng of RNA from the microRNA-enriched fraction was used to generate cDNA using the Quantimir kit (SBI) in order to poly adenylate small RNA species. RT reactions were performed followed by PCR in which a universal reverse primer was provided by the manufacturer. Specific microRNA forward primers are identical in sequence to the microRNA of interest. PCR products corresponding to the amplified microRNAs were separated in a 3.5% (w/v) agarose gel. The PCR products are at around 67 bp as compared with the Fermentas 1 kb DNA Plus Ladder. Increased levels of 3′TAR microRNA were produced post CR8#13 treatment.
# For poly-A RT-PCR detection of microRNAs, 500 ng of RNA from the microRNA-enriched fraction was used to generate cDNA using the Quantimir kit (SBI) according to the manufacturer's protocol. Briefly, small RNA species are poly-adenylated and then reverse transcription reactions are performed with a company-provided RT primer. For PCR, a universal reverse primer is provided by the manufacturer. Specific microRNA forward primers are identical in sequence to the microRNA of interest. PCR products corresponding to the amplified microRNAs were separated in a 3.5% (w/v) agarose gel and quantified using the Kodak 1D software.
# To determine whether the cdk inhibitors Flavopiridol, CR8, and CR8#13 increased levels of TAR microRNA in the TSA-treated and control TZM-bl cells total RNA was extracted from both TSA treated and control cells treated with Flavopiridol, CR8, and CR8#13 and processed for RT-PCR detection of microRNAs, specifically, for the presence of 3′TAR and 5′TAR molecules.
# [3] = tested on: ACH2 cells (HIV-1 infected); experiment: Cell viability by trypan blue exclusion, 48 hours; assay type: cell-based; conditions: HIV-1 infected
# Description: (§5) TZM-bl cell lines were grown in Dulbecco's modified Eagle's medium supplemented with fetal bovine serum (FBS) (10%, v/v), 2 mM L-glutamine, and antibiotics (penicillin 100 U/ml, streptomycin […]) (cDMEM). HCT116 WT and HCT116 Dicer−/−cell lines were grown in McCoy's medium supplemented with FBS (10%, v/v), 2mM L-glutamine, and antibiotics (penicillin 100 U/ml, streptomycin […]). CEM, ACH2, Jurkat and U937 cells were grown in RPMI 1640 supplemented with FBS, L-glutamine, and antibiotics (penicillin 100 U/ml, streptomycin […]). All cell lines were maintained at 37° C. in 5% (v/v) CO2. […]
# (§6) In brief, the inhibition studies were carried out as follows. HIV-1 infected cells ACH2, J1.1, OM10.1, U1 and uninfected CEM, Jurkat T-cells, and U937 were cultured in media. The appropriate inhibitor was added at a concentration of 10 μM. Cells were treated for 48 hours and cell viability was determined using trypan blue exclusion method. Results of such a screen for 19 inhibitors is shown in Table 1 where percent dead cells are indicated each drug tested.
# (§7) Again HIV-1 infected and uninfected cells were treated with eighteen Formula I compounds at a drug concentration of 50 nm. Forty-eight hours after treatment, cytotoxicity was determined by trypan blue dye exclusion. Percent inhibition was calculated after obtaining the cell density for each well of the tissue culture plate at the end of 48 hrs.
# [4] = tested on: Jurkat T-cells (uninfected); experiment: Cell viability by trypan blue exclusion, 48 hours; assay type: cell-based
# Description: as §5, §6, §7
# [5] = tested on: HIV-1 infected and uninfected cells; experiment: Classification of inhibitors by effect on viability of infected versus uninfected cells; assay type: cell-based; conditions: high
# Description: The inhibitors were classified into three categories: high, moderate or poor, according to their effect on cellular viability in both HIV-1 infected and uninfected cells. Among the compounds tested in this study, CR8, a purine analog bearing a 2-pyridyl group para to the phenyl ring position 6 of the purine was the most promising drug candidate that killed HIV-1 infected cells, while having little or no effect on the death of uninfected cells.
# [6] = tested on: U1 cells (HIV-1 infected); experiment: Cell viability by trypan blue exclusion, 48 hours; assay type: cell-based
# Description: as §6, §7
# [7] = tested on: OM10.1 cells (HIV-1 infected); experiment: Cell viability by trypan blue exclusion, 48 hours; assay type: cell-based
# Description: as §6, §7
# [8] = tested on: J1.1 cells (HIV-1 infected); experiment: Cell viability by trypan blue exclusion, 48 hours; assay type: cell-based
# Description: as §6, §7
SMILES,RT levels in supernatant [1],RT levels in supernatant [2],"3′ and 5′ TAR microRNA amount (3′TAR and 5′TAR microRNA; TZM-bl cells treated with TSA for 7 days, then drug)",3′ TAR microRNA amount (3′TAR and 5′TAR microRNA),"inhibition at 10 µM ([3]; Human immunodeficiency virus 1, ACH-2, 48 h, 10 μM, 48 hours, read-out: % Inhibition (percent dead cells) ACH2) [%]","inhibition at 10 µM ([4]; Homo sapiens, Jurkat, 10 μM, 48 hours, read-out: % Inhibition (percent dead cells) Jurkat) [%]","Selectivity ([5]; 10 μM, moderate or poor by effect on viability of infected and uninfected cells)","inhibition at 10 µM ([6]; Human immunodeficiency virus 1, 48 h, read-out: % Inhibition (percent dead cells) U1) [%]","inhibition at 10 µM ([7]; Human immunodeficiency virus 1, 48 h, read-out: % Inhibition (percent dead cells) OM10.1) [%]","inhibition at 10 µM ([8]; Human immunodeficiency virus 1, 48 h, read-out: % Inhibition (percent dead cells) J1.1) [%]","Inhibition Percentage ACH2 ([3]; 50 nM, 48 hrs)","Inhibition Percentage Jurkat ([4]; 50 nM, 48 hrs)","Selectivity ([5]; 50 nM, moderate or poor)","Inhibition Percentage U1 ([6]; 50 nM, 48 hrs, HIV-1 infected)","Inhibition Percentage OM10.1 ([7]; 50 nM, 48 hrs, HIV-1 infected)","Inhibition Percentage J1.1 ([8]; 50 nM, 48 hrs, HIV-1 infected)"
CC[C@@H](CO)Nc1nc(NCc2ccc(-c3ccccn3)cc2)c2ncn(C(C)C)c2n1 [CR8],not U937 monocytic cells,effective at decreasing RT levels,higher amounts of both 3′ and 5′ TAR microRNA,significantly increased amount of the 3′ TAR microRNA,90,50,High,90,75,75,–,–,–,–,–,–
CC(C)c1cnn2c(NCc3ccc(-c4ccccn4)cc3)nc(NC[C@H](O)CO)nc12.O=C(O)/C=C/C(=O)O [BJFP1154],not U937 monocytic cells,effective at decreasing RT levels,–,significantly increased amount of the 3′ TAR microRNA,–,–,–,–,–,–,− (1-5%),− (1-5%),Poor,− (1-5%),− (1-5%),− (1-5%)
